Legend:
AR-VP16 = target: T1, AR-VP16 (Homo sapiens, UniProt P10275); experiment: AR-VP16 DNA binding assay, HepG2; assay type: cell-based; settings: HepG2, antagonist mode, 90 pM R1881, 48 hours; read-out: IC50 VP16 WT
T1 sequence (P10275 560-920 limits assumed): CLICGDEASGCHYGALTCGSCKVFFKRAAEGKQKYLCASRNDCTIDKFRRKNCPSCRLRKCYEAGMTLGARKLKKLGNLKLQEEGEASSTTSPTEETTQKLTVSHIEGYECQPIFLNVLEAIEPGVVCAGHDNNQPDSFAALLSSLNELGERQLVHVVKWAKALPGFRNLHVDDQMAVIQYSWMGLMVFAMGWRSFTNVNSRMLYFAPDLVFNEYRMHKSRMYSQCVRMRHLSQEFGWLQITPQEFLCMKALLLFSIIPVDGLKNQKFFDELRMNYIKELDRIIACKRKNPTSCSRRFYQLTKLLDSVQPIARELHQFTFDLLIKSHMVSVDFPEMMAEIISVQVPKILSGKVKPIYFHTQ
Method: (§1) HepG2 cells were maintained in EMEM supplemented with 10% FBS. One day before transfection, the media was changed to EMEM with 10% CSS. […] Cells were then trypsinized, counted and resuspended at 500,000 cells/mL. For agonist mode, the compounds were serially diluted and 50 μL of the compound was added per well. 50 μL of the cells were added to each well and incubated for 48 hours. For antagonist mode, a final concentration of 90 pM (VP16 AR) or 1 nM (VP16 F876L) R1881 was added to the plate and incubated for 48 hours. The plates were then assayed using SteadyGlo and read on the Envision. Percent Stimulation and Inhibition were determined and analyzed using GraphPad Prism.

F876L-VP16 = target: T2, F876L-VP16 (Homo sapiens, UniProt P10275, F877L); experiment: AR-VP16 DNA binding assay, HepG2; assay type: cell-based; settings: HepG2, antagonist mode, 1 nM R1881, 48 hours
T2 construct: VP16 (fusion partner); expressed in transfected cells; host or cells: HepG2
T2 sequence (P10275 1-920 F877L): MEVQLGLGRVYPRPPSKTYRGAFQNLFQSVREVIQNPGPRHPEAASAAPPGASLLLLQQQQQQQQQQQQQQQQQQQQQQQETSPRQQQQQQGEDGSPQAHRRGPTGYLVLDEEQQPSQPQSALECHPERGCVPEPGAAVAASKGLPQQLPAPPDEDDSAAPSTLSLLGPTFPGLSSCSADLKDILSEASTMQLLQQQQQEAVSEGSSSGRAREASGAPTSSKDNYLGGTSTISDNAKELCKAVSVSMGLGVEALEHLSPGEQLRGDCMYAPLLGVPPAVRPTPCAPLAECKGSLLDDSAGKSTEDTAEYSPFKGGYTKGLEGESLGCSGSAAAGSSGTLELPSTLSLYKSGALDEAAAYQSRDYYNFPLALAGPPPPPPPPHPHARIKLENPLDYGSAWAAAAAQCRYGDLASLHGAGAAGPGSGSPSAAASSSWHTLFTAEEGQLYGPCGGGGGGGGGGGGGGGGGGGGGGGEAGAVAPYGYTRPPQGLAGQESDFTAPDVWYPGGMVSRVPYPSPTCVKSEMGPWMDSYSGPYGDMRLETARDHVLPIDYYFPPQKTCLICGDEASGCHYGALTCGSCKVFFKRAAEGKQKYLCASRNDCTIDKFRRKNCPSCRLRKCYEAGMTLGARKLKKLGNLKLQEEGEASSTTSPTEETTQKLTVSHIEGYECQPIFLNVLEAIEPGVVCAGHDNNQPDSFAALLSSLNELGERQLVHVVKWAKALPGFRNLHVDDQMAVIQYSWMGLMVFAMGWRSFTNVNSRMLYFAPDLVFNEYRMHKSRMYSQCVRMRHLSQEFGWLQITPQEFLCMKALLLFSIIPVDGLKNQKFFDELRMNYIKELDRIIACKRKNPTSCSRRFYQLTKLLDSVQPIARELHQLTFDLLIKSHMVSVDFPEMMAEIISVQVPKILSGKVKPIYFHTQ
Method: as §1

Compound N#Cc1ncc(N2C(=O)C3(CCC3)N(c3ccc(OC4CCNCC4)cc3)C2=S)cc1C(F)(F)F [Cpd 35, 5-[5-oxo-8-[4-(4-piperidyloxy)phenyl]-7-thioxo-6,8-diazaspiro[3.4]octan-6-yl]-3-(trifluoromethyl)pyridine-2-carbonitrile] has an IC50 (AR-VP16) of 3.39 µM and an IC50 (F876L-VP16) of 2.74 µM.
In the case of N#Cc1ncc(N2C(=O)C3(CCC3)N(c3ccc(C(=O)NCCCO)c(F)c3)C2=S)cc1C(F)(F)F [Cpd 40, 4-[6-[6-cyano-5-(trifluoromethyl)-3-pyridyl]-5-oxo-7-thioxo-6,8-diazaspiro[3.4]octan-8-yl]-2-fluoro-N-(3-hydroxypropyl)benzamide], the IC50 (AR-VP16) is reported as 0.024 µM and the IC50 (F876L-VP16) is reported as 0.994 µM.
